The values that follow come from patent publication US6476076B1 (priority 1999, dated 2002).

Several values for one entry are separate records, joined by “and”; a condition that tells them apart may be missing. Equal entries are not always repeated.

In data set [1] the target is T1, vanilloid receptor (rat spinal cord membrane preparations) (Rattus norvegicus, UniProt O35433).
T1 construct: determined on membrane preparations from rat spinal cord; from tissue; host or cells: rat spinal cord membranes
Description: biochemical. The format is binding.

For data set [2], the target named is T2, CAP-activated channels in cultured neonatal rat dorsal root ganglion (DRG) neurons (Rattus norvegicus, UniProt O35433).
T2 construct: extracellular application of the compounds to cultured neonatal rat dorsal root ganglion (DRG) neurons; endogenous in cells; host or cells: primary cultured DRG neurons from 1 or 2 day old neonatal rats
The format is cell-based. Details: key: + = CAP; ++ = 10 CAP; +++ = 100 CAP.

Data set [3] concerns PBQ-induced writhing in ICR mice. In words: animal or person. It is filed as in vivo, mouse. To be noted: for ED50: Mus musculus, read-out: Writhing Test ED50. Background: An intraperitoneal irritant provokes the stretching counted in writhing tests.
Data set [4] concerns rat eye (eye-wiping response). To be noted: in vivo.
The test system of data set [5] is TPA-induced ear edema in ICR mice. To be noted: mouse, in vivo.
A further data set concerns DRG neurons. Description: cells. To be noted: Rattus norvegicus, DRG neuron, 10 min, read-out: 45Ca Influx EC50. It is filed as cell-based.
Data set [6] concerns acetic acid-induced writhing in ICR mice. In words: animal or person. It is filed as in vivo, mouse. To be noted: for ED50: Mus musculus, ip, read-out: Writhing Test ED50.

T1 sequence (O35433 whole entry): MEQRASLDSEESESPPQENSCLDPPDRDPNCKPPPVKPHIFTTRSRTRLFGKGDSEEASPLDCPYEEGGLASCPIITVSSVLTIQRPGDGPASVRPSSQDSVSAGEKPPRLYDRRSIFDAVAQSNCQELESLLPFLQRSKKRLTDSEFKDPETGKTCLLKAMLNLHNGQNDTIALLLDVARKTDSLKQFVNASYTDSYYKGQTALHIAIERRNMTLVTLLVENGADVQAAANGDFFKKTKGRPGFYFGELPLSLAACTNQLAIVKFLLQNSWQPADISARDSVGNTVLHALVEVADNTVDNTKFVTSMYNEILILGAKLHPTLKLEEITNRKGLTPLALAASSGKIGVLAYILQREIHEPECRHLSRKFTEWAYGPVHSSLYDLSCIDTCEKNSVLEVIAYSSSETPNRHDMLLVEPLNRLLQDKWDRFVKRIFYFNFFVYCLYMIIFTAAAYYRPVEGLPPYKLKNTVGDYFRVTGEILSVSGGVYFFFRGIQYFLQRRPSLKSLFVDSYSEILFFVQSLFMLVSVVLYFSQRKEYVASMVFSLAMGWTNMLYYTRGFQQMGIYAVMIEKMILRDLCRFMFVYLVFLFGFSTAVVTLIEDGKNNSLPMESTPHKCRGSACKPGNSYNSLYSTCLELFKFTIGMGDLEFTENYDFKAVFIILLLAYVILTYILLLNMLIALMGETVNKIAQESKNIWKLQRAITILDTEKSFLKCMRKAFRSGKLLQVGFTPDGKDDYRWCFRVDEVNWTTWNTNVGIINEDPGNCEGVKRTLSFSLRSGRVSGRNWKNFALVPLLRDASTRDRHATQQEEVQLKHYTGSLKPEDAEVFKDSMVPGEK
T2 sequence (O35433 whole entry): as above

Turning to “2-(4-t-Butylbenzyl)-3-{[(4-hydroxy-3-methoxybenzyl)amino]carbothioyl}propyl Pivalate [7d-I]”, the “times more potent than CAP (receptor binding)” value in data set [1] is roughly 490 times. The Activations entry in data set [2] is recorded as “++”. Further, the “Relative Potency (Writhing Test)” value in data set [3] (mouse, in vivo) is 300. For the same compound, the “Writhing Test ED50” value in data set [3] (mouse, in vivo, ip) is 0.001 mg/kg. Also, in data set [4], the “% Reduction of response to 0.001% capsaicin” value (“% Reduction of response” for short) was 0 (0.1) %, the “MPP: moderate pain-producing potency” value is 0.003% and the “RPP: relative pain-producing potency” value was 10. For the same compound, in data set [5], the “Ear Edema Assay ID50” value turned out to be 5 μg/ear and the “Relative Potency (Ear Edema Assay)” value came out at 0.6.

Broadly, the EC50 is the concentration at which the effect is half-maximal. For orientation: ED50 means the dose that gives a 50% effect, or the effect in half of the subjects. Regarding `COc1cc(CNC(=S)NCC(COC(=O)C(C)(C)C)Cc2ccc(C)c(C)c2)ccc1OCC(=O)O` (centres unmarked) [19a, 2,2-Dimethyl-propionic Acid 2-[3-(4-Carboxymethoxy-3-methoxy-benzyl)-thioureidomethyl]-3-(3,4-dimethyl-phenyl)-propyl Ester], the EC50 in the data set with DRG neurons was 7770 ± 800 nM. Moreover, in data set [6], the 50% effective dose (ED50) came to 0.431 mg/kg.

For `COc1cc(CNC(=S)NCC(COC(=O)C(C)(C)C)Cc2ccc(C(C)(C)C)cc2)ccc1OCC(=O)O` (centres unmarked) [19b, 2,2-Dimethyl-propionic Acid 3-(4-t-Butyl-phenyl)-2-[3-(4-carboxymethoxy-3-methoxy-benzyl)-thioureidomethyl]-propyl Ester], the EC50 with DRG neurons is 12300 ± 1580 nM. The ED50 in data set [6] was found to be 0.365 mg/kg.

Consider `COc1cc(CNC(=S)NCC(COC(=O)C(C)(C)C)Cc2ccc(C)c(C)c2)ccc1OC(=O)CCC(=O)O` (centres unmarked) [23a, Succinic Acid Mono-(4-{3-[3-(3,4-dimethyl-phenyl)-2-(2,2-dimethyl-propionyloxymethyl)-propyl]-thioureidomethyl}-2-methoxy-phenyl) Ester], for which, in the data set on DRG neurons, the EC50 was determined as 7040 ± 1300 nM. Moreover, the ED50 in data set [6] was 0.0531 mg/kg.

On to `COc1cc(CNC(=S)NCC(COC(=O)C(C)(C)C)Cc2ccc(C(C)(C)C)cc2)ccc1OC(=O)CCC(=O)O` (centres unmarked) [23b, Succinic Acid Mono-(4-{3-[3-(4-t-butyl-phenyl)-2-(2,2-dimethylpropionyloxymethyl)-propyl]-thioureidomethyl}-2-methoxy-phenyl) Ester], for which the concentration giving a half-maximal response (EC50) with DRG neurons came to 7000 ± 1200 nM. Moreover, the ED50 in data set [6] is 0.06 mg/kg.

For the compound `COc1cc(CC(=O)NCC(COC(=O)C(C)(C)C)Cc2ccc(C)c(C)c2)ccc1OCCN` (centres unmarked) [28a, 2,2-Dimethyl Propionic Acid 2-({2-[4-(2-Aminoethoxy)-3-methoxyphenyl]acetylamino}methyl)-3-(3,4-dimethylphenyl)propyl Ester], the EC50 in the data set on DRG neurons worked out at 1570 ± 230 nM. The median effective dose (ED50) in data set [6] was found to be 0.00096 mg/kg. In data set [6] (mouse, in vivo), the “analgesic activity (in words)” value was “the most potent one and more potent than DA-5018”.

In the case of `COc1cc(CC(=O)NCC(COC(=O)C(C)(C)C)Cc2ccc(C(C)(C)C)cc2)ccc1OCCN` (centres unmarked) [28b, 2,2-Dimethyl Propionic Acid 2-({2-[4-(2-Aminoethoxy)-3-methoxyphenyl]acetylamino}methyl)-3-(4-t-butylphenyl)propyl Ester], the concentration giving a half-maximal response (EC50) in the data set with DRG neurons is 878 ± 170 nM. The median effective dose (ED50) in data set [6] was found to be 0.00812 mg/kg.

For the compound `COc1cc(CNC(=S)NCC(COC(=O)C(C)(C)C)Cc2ccc(C)c(C)c2)ccc1OCCN` (centres unmarked) [36a, 2,2-Dimethyl Propionic Acid 2-{3-[4-(2-Aminoethoxy)-3-methoxybenzyl]thioureido Methyl}-3-(3,4-dimethylphenyl)propyl Ester], the EC50 in the data set with DRG neurons worked out at 83 ± 12 nM. In addition, in data set [6], the ED50 was 0.014 mg/kg.

Take `COc1cc(CNC(=S)NCC(COC(=O)C(C)(C)C)Cc2ccc(C(C)(C)C)cc2)ccc1OCCN` (centres unmarked) [36b, 2,2-Dimethyl Propionic Acid 2-{3-[4-(2-Aminoethoxy)-3-methoxybenzyl]thioureido Methyl}-3-(4-t-butylphenyl)propyl Ester]: in the data set with DRG neurons, the EC50 came out at 377 ± 67 nM. Further, the ED50 in data set [6] stood at 0.0482 mg/kg.

As for `COc1cc(CNC(=O)CCCC/C=C/C(C)C)ccc1O` [Capsaicin, reference compound], the concentration for a half-maximal effect (EC50) with DRG neurons was 435 nM. For the same compound, the 50% effective dose (ED50) in data set [3] (ip) amounted to 0.3 mg/kg. Moreover, in data set [4], the “% Reduction of response” value is 55 (0.1) % and 35 (0.01) %; the “MPP: moderate pain-producing potency” value came out at 0.0003%; the “response to 0.001% CAP challenge 6 h posttreatment (in words)” value is “attenuated eye-wiping response”. In data set [5], the “Ear Edema Assay ID50” value is 3 μg/ear and the “antiinflammatory activity in the TPA ear edema assay (in words)” value (“antiinflammatory activity” below) is recorded as “strong anti-edema activity”.

Turning to `COc1cc(CC(=O)NCCCc2ccc(C)c(C)c2)ccc1OCCN` [DA-5018, 2-[4-(2-aminoethoxy)-3-methoxyphenyl]-N-[3-(3,4-dimethylphenyl)propyl]acetamide, reference compound], the EC50 in the data set with DRG neurons came to 234 nM. Also, the median effective dose (ED50) in data set [3] (ip) is 0.003 mg/kg. The “Relative Potency (Writhing Test)” value in data set [3] (mouse, in vivo) came out at 100. For the same compound, in data set [4], the “MPP: moderate pain-producing potency” value was determined as 0.003% and the “RPP: relative pain-producing potency” value came to 10. Further, in data set [5], the “Ear Edema Assay ID50” value came out at 200 μg/ear, the “Relative Potency (Ear Edema Assay)” value was found to be 0.015 and the “antiinflammatory activity” value is “weak topical activity”. Moreover, the ED50 in data set [6] was determined as 0.00227 mg/kg.

On to `CCCCCCCC/C=C\CCCCCCCC(=O)NCc1ccc(O)c(OC)c1` [Olvanil, reference compound], for which, in data set [3] (ip), the median effective dose (ED50) was determined as 0.03 mg/kg. Also, the “Relative Potency (Writhing Test)” value in data set [3] (mouse, in vivo) came to 10. Further, in data set [4], the “% Reduction of response” value came to 0.1% and the “MPP: moderate pain-producing potency” value is given as “WP^c”. In addition, in data set [5], the “Ear Edema Assay ID50” value came out at 30 μg/ear, the “Relative Potency (Ear Edema Assay)” value is 0.1 and the “antiinflammatory activity” value is given as “weak topical activity”. In addition, in data set [6], the 50% effective dose (ED50) worked out at 0.0174 mg/kg.
